# Where “and” joins values, the source holds several entries; their conditions need not be identical. Identical values can stand only once. Like-named read-outs stand apart in the source and are kept apart here.
# What was measured:
# cardiac tissues = conditions: Heers et al. 1991; Damiano et al. 1991; cited from earlier work
# [1] = test system: guinea pig isolated, perfused heart; conditions: for developed pressure: FIG. 7
# [2] = test system: [Na+]i of guinea pig isolated heart; test: 23Na-NMR spectroscopy of intracellular sodium concentration in isolated heart
# [3] = test system: late sodium current (late INa); test: Whole-cell patch-clamp of late INa in isolated ventricular myocytes; type: cell-based, guinea pig
# [4] = test system: isolated guinea pig papillary muscles
# Na+, K+-ATPase = test: Na+,K+-ATPase activity assay by 86Rb+ uptake of A7r5 cells; type: cell-based; conditions: for 86Rb+ uptake: control = activity in presence of ouabain
# From the text: The activity of Na^+, K^+-ATPase was inhibited 77% by 1 mmol/L ouabain in the absence (control) of ranolazine. Values of ^86Rb^+ uptake were 91±11, 98±2.5, and 93±8.3% of control (activity in presence of ouabain) in the presence of 3, 10, and 30 μmol/L ranolazine, respectively.
# cat papillary muscles = conditions: 1.37 μmol/L ouabain, Lee et al. 1960; cited from earlier work
# [5] = test system: guinea pig isolated, perfused heart; test: 31P-NMR spectroscopy of energy-related phosphates and pHi in isolated heart
# [6] = FIG. 1, after ouabain without ranolazine
# [7] = 0.75 μmol/L ouabain for 60 min, n=5
# [8] = Example 1, ouabain-alone treated hearts
# [9] = after ouabain treatment (discussion)
# [10] = 0.75 μmol/L ouabain in the presence of 10 μmol/L ranolazine
# [11] = 0.75 μmol/L ouabain in the presence of 10 μmol/L ranolazine, 60 min
compound,measurement,setting,value
CN(c1nc2ccccc2s1)C1CCN(CCCCOc2ccc(F)cc2)CC1 [R56865],sodium and calcium overload during exposure to cardiac glycosides,cardiac tissues,reduce sodium and calcium overload
"NC1=N[C@H](O)[C@H]2[C@H]3O[C@]4(O)O[C@@H]([C@@H](O)[C@@]2(N1)[C@@H]4O)[C@]3(O)CO [TTX, tetrodotoxin]",LVSP decrease,[1],9% and 18.2%
same,effect of ouabain to cause contractile dysfunction,[1],attenuated
same,episodes of cardiac standstill and changes in LVEDP,[1],neither episodes of cardiac standstill nor changes in LVEDP were observed
same,maximum value of RPP,[1],"35,569±1,850 mmHg/min and 39,182±2,216 mmHg/min"
same,occurrence of episodes of cardiac standstill caused by ouabain,[1],reduced
same,positive inotropic effect of ouabain throughout the 60-min exposure,[1],sustained
same,recovery of contractile function after drug washout,[1],better recovery
same,responses of hearts exposed to ouabain,[1],comparable to those exposed to ouabain in the presence of 3 union ranolazine
same,[Na+]i,[2],did not significantly change
same,[Na+]i plateau concentration,[2],10.5 ± 0.3 mmol/L
same,decrease in the ouabain-induced rise of [Na+]i,[2],concentration-dependent
same,effect of 1 μmol/L ouabain to increase late INa,[3],partially reversed
same,late INa,[3],21.2±7.9 pC/pF
same,ouabain-induced late current,[3],completely inhibited
same,increase of diastolic tension during ouabain treatment,[4],attenuated
C[C@@H]1O[C@@H](O[C@H]2C[C@@H](O)[C@]3(CO)[C@H]4[C@H](O)C[C@]5(C)[C@@H](C6=CC(=O)OC6)CC[C@]5(O)[C@@H]4CC[C@]3(O)C2)[C@H](O)[C@H](O)[C@H]1O [ouabain],"activity of Na+, K+-ATPase inhibited","Na+, K+-ATPase; 1 mmol/L ouabain, absence of ranolazine",77%
same,hearts with episodes of cardiac standstill,"[1]; 0.75 μmol/L ouabain for 60 min, alone",11 out of 13
same,LVSP,"[1]; 0.75 μmol/L ouabain, from 96±2 mmHg, n=13",148±6 mmHg
same,RPP,"[1]; 0.75 μmol/L ouabain, from 26,497±664 mmHg/min, n=13","40,676±1159 mmHg/min"
same,increase of LVSP,"[1]; 0.75 μmol/L ouabain, n=13",55±5%
same,increase of RPP,"[1]; 0.75 μmol/L ouabain, n=13",59±6%
same,diastolic function (pressure) during 20 min wash out,[1]; [6],34 mmHg
same,systolic pressure during 20 min wash out,[1]; [6],70 mmHg
same,"Left ventricular systolic pressure, maximum upon infusion with ouabain","[1]; FIG. 1 representative tracing, ouabain without ranolazine, baseline 101 mmHg",140 mmHg
same,EDP during toxic effect of ouabain,"[1]; FIG. 1 representative tracing, ouabain without ranolazine, increase from 8 mmHg",45 mmHg
same,developed pressure,[1]; ouabain-only treated hearts,significantly decreased
same,LVDevP at the end of washout,"[1]; ouabain alone, control 89.1±1.0 mmHg",36.4±5.9 mmHg
same,reduction of [ATP],cat papillary muscles,42%
same,reduction of [PCr],cat papillary muscles,66%
same,[Na+]i,"[2]; 0.75 μmol/L ouabain for 40 min, absence of ranolazine, n=4",14.9 ± 0.9 mmol/L
same,[Na+]i,"[2]; 0.75 μmol/L ouabain for 76 min, absence of ranolazine, n=4",18.1 ± 0.9 mmol/L
same,[Na+]i plateau level,"[2]; 1.3 μmol/L ouabain alone, n=6",22.9 ± 0.7 mmol/L
same,increase of [Na+]i,"[2]; 1.3 μmol/L ouabain, at 60 min",3.3 -fold
same,[Na+]i after washout of ouabain for 20 min,"[2]; after 1.3 μmol/L ouabain, n=5",10.3 ± 1.8 mmol/L
same,integrated late INa,"[3]; 3 to 5-min exposure to ouabain 1 μmol/L, from 23.5±4.9, n=8",99.6±15.2 pC/pF
same,late INa,"[3]; ouabain alone 1 μmol/L, 5-10 min, from 21±2, n=6",84±12 pC/pF
same,increase of late INa,"[3]; ouabain alone 1 μmol/L, 5-10 min, n=6",318±74%
same,[ATP] decline,[5]; [7],55±6%
same,[PCr] decline,[5]; [7],56±7%
same,[Pi] increase,[5]; [7],3.7±0.9 -fold
same,[Pi] before washout,"[5]; 0.75 μmol/L ouabain for 60 min, control 2.9±0.2",9.1 ± 0.5 mmol/L
same,pHi,"[5]; 0.75 μmol/L ouabain for 60 min, control 7.15±0.01",7.07±0.01
same,decrease of |ΔG~ATP|,"[5]; 0.75 μmol/L ouabain for 60 min, control 59.2 kJ/mol",7.2 ± 1.2 kJ/mol
same,ATP content reduced by,[5]; [8],64%
same,intracellular inorganic phosphate (Pi) increase,[5]; [8],4.8 fold
same,phosphocreatine (PCr) content reduced by,[5]; [8],59%
same,pH,"[5]; Example 1, ouabain-alone treated hearts, baseline 7.14",7.07
same,[Pi] after 20-min washout,[5]; after 0.75 μmol/L ouabain,5.8 ± 0.4 mmol/L
same,pHi after 20-min washout,[5]; after 0.75 μmol/L ouabain,7.15
same,loss of [ATP] and [PCr],[5]; [9],over 50%
same,reduction of the value of |ΔG~ATP|,[5]; [9],7 kJ/mol
COc1ccccc1OCC(O)CN1CCN(CC(=O)Nc2c(C)cccc2C)CC1 (stereo not shown) [ranolazine],86Rb+ uptake,"Na+, K+-ATPase; 3 μmol/L ranolazine",91±11 % of control
same,86Rb+ uptake,"Na+, K+-ATPase; 10 μmol/L ranolazine",98±2.5 % of control
same,86Rb+ uptake,"Na+, K+-ATPase; 30 μmol/L ranolazine",93±8.3 % of control
same,effect on sodium pump activity,"Na+, K+-ATPase; 3, 10, 30 μmol/L ranolazine",no measurable effect
same,effect of ouabain to cause contractile dysfunction,[1],attenuated
same,"mechanical dysfunction (increase in end diastolic pressure, episodes of cardiac standstill)",[1],not observed
same,occurrence of episodes of cardiac standstill caused by ouabain,[1],reduced
same,maximum value of RPP,"[1]; 0.75 μmol/L ouabain + 3 μmol/L ranolazine, n=8","40,033±1,477 mmHg/min"
same,positive inotropic response to ouabain during the 60-min exposure,[1]; 0.75 μmol/L ouabain + 5 μmol/L ranolazine,not sustained at a maximal level
same,maximum value of RPP,"[1]; 0.75 μmol/L ouabain + 5 μmol/L ranolazine, n=5","38,874±2,904 mmHg/min"
same,maximum value of RPP,"[1]; 0.75 μmol/L ouabain + 10 μmol/L ranolazine, n=8","41,079±2,097 mmHg/min"
same,positive inotropic response to ouabain,"[1]; Example 1, RAN 10 μM, ouabain 0.75-1.3 μM for 60 min",did not reduce
same,systolic pressure during Ranolazine delivery,"[1]; FIG. 2, 3.3 uM Ran pretreatment",slight drop
same,maximal inotropic effect of ouabain,"[1]; FIG. 2, heart pretreated with 3.3 uM Ran",the same as in the ouabain alone treated hearts
same,SP (systolic pressure),"[1]; FIG. 3, 5 uM Ran",transient decrease
same,maximal positive inotropic effect of ouabain,"[1]; FIG. 3, 5 uM Ran",not reduced
same,left ventricular contractile function over the duration of the experiment,"[1]; FIG. 4, heart pretreated with 10 uM Ran",stable contractile function
same,ability of ouabain to significantly increase the pos dP/dt,[1]; FIG. 6,did not affect
same,RPP increase upon infusion with ouabain,"[1]; FIG. 6, hearts pretreated with 10 uM ranolazine",reached the same value as in the absence of ranolazine
same,RPP during the wash out period,"[1]; FIG. 6, ouabain in the presence of ranolazine vs ouabain alone",improved
same,decrease of RPP (rate pressure product),"[1]; FIG. 6, pretreatment with 10 uM ranolazine, before ouabain",about 20%
same,developed pressure,"[1]; ouabain, hearts treated with 10 uM ranolazine",increased
same,LVDevP at the end of washout,[1]; ouabain + 3 μmol/L ranolazine,59.2±5.5 mmHg
same,positive inotropic effect of ouabain throughout the 60-min exposure,[1]; ouabain + 10 μmol/L ranolazine (n=8) or 1 μmol/L TTX (n=6),sustained
same,episodes of cardiac standstill and changes in LVEDP,[1]; ouabain + 10 μmol/L ranolazine or 1 μmol/L TTX,neither episodes of cardiac standstill nor changes in LVEDP were observed
same,LVDevP at the end of washout,[1]; ouabain + 5 or 10 μmol/L ranolazine or 1 μmol/L TTX,not significantly different from control
same,recovery of contractile function after drug washout,"[1]; ouabain + 5 or 10 μmol/L ranolazine or 1 μmol/L TTX, vs ouabain alone",better recovery
same,LVSP decrease,[1]; ranolazine alone 3 μmol/L,8%
same,LVSP decrease,[1]; ranolazine alone 5 μmol/L,16.7%
same,LVSP decrease,[1]; ranolazine alone 10 μmol/L,15.8%
same,[Na+]i plateau concentration,"[2]; 1.3 μmol/L ouabain in the presence of 10 μmol/L ranolazine, n=8",15.4 ± 0.45 mmol/L
same,[Na+]i,"[2]; 10 μmol/L ranolazine for up to 30 min or 1 μmol/L TTX for 10 min, no ouabain",did not significantly change
same,ouabain-induced increase in [Na+]i,"[2]; 3 or 10 μmol/L ranolazine given after 40 min of 0.75 μmol/L ouabain alone, pooled n=6, FIG. 8C",partially reversed
same,cardiac [Na+]i during normal perfusion,"[2]; Example 1, RAN 10 μM",did not change
same,[Na+]i accumulation during ouabain treatment,"[2]; Example 1, RAN 10 μM, P<0.01",reduced
same,decrease in the ouabain-induced rise of [Na+]i,"[2]; FIG. 8E, Ran 3 and 10, TTX 0.5 and 1 μmol/L",concentration-dependent
same,[Na+]i,"[2]; ranolazine 10 μmol/L for 30 min, no ouabain, n=5, control 6.9±0.6",6.5 ± 0.4 mmol/L
same,level of [Na+]i in hearts previously exposed to ouabain alone for 40 min,"[2]; ranolazine 10 μmol/L, 30 min, FIG. 8C",did not significantly reduce
same,effect of 1 μmol/L ouabain to increase late INa,"[3]; FIG. 9, ranolazine 10 μmol/L or TTX 3 μmol/L",partially reversed
same,reduction of late INa,"[3]; ranolazine 10 μmol/L in the continuous presence of ouabain 1 μmol/L, n=8",69±9%
same,late INa,"[3]; ranolazine 10 μmol/L in the continuous presence of ouabain, from 99.6±15.2, n=8",50.6±13.6 pC/pF
same,increase of diastolic tension during ouabain treatment,[4]; 5 and 10 μmol/L ranolazine and 1 μmol/L TTX,attenuated
same,[Pi] increase,[5]; [10],1.3±0.1 times
same,fall in pHi,[5]; [10],not significant
same,[ATP],[5]; [11],did not change significantly
same,[PCr] decrease from baseline,[5]; [11],19±5%
same,[Pi] increase,"[5]; Example 1, RAN + ouabain",14%
same,pH,"[5]; Example 1, RAN + ouabain",remained constant
same,ATP and PCr decrease,"[5]; Example 1, RAN pretreatment, after 60 min of ouabain treatment",20%
same,decrease of |ΔG~ATP|,[5]; ouabain in the presence of 10 μmol/L ranolazine,1.9 ± 0.6 kJ/mol
same,concentrations of phosphates or pHi,[5]; ranolazine alone for 10 min,did not alter
